Measured values taken from patent US20110319451A1, “5-Ht6 Receptor and Modulators Thereof for the Treatment of Insulin-Related Disorders” (priority 2008, published 2011).

Legend:
[1] = molecular target: rat 5-HT6 receptor (Rattus norvegicus, UniProt P31388); settings: cited from earlier work
[2] = molecular target: cloned human 5-HT6 subtype (Homo sapiens, UniProt P50406); settings: cited from earlier work
[3] = tested on: DIO female rats; settings: cited from earlier work; for cumulative weekly food intake: DIO female rats; for weight-loss versus control: after 28 days of administration, DIO rats
[4] = tested on: female DIO rat model; settings: cited from earlier work
[5] = 30 mg/kg i.p., daily for 3 days, growing rats; cited from earlier work
[6] = tested on: C57/Bl6 mice; assay: oral glucose tolerance test (oGTT) in C57/Bl6 mice; assay type: in vivo, mouse; settings: 1, 3.3 or 10 mpk oral, 30 min before glucose bolus 3 gram/kg, FIG. 5
Method: (§1) Thirty minutes later, a glucose bolus (3 gram/kg) was then delivered per orally. Plasma glucose levels were determined at indicated time points over a two hour period using blood (˜5 μl) collected from tail nick and a glucose meter. Glycemic excursion curve was graphed based on data from 6 mice and given in mean values +/−SEM (FIG. 5 upper left panel).

[7] = tested on: C57bl/6 male mice; assay: insulin release in response to a glucose bolus in mice; assay type: in vivo, mouse; settings: 10 mpk oral; 5, 10 and 20 minutes after glucose bolus 3 g/kg, FIG. 5
Method: C57bl/6 male mice (8 weeks of age) were fasted for 18 hours, and randomly assigned into eight groups with n=6 for each group. Mice were administered per orally with vehicle (20% HPCD) or with 10 mpk EMD 386088. After 30 minutes, a glucose bolus of 3 g/kg was administered orally. Blood was collected in heparinated blood collection tubes at 0 minute (no glucose bolus), 5 minutes, 10 minutes, and 20 minutes after glucose bolus. Plasma samples were obtained via centrifugation at 500×g for 20 minutes and assayed for insulin using an Ultra Sensitive Insulin ELISA kit (Crystal Chem. Inc., Downers Grove, Ill.).

[8] = tested on: C57bl/6 male mice; assay: plasma glucose levels (hypoglycemia) in fasted mice; assay type: in vivo, mouse; settings: 10 mpk or 30 mpk oral, 0-120 minutes post-dosing, FIG. 7
Method: Plasma glucose levels were determined at 0 minute (right before dosing), and 30, 60, 90, and 120 minutes post-dosing using blood (˜5 μl) collected from tail nick and a glucose meter. Glycemic changes were graphed based on data from 6 mice and given in mean values +/−SEM.

[9] = tested on: db/db mutant diabetic mice; assay: oGTT in diabetic db/db mice; assay type: in vivo, mouse; settings: 3.3, 10 or 30 mpk oral, glucose bolus 2 gram/kg, FIG. 8
Method: as §1, with “(2” for “(3”, “+/−SEM.” for “+/−SEM (FIG. 5 upper left panel).”

[10] = molecular target: 5-HT6 receptor (Homo sapiens, UniProt P50406); settings: cited from earlier work
Sequence of 5-HT6 receptor (P50406 whole entry): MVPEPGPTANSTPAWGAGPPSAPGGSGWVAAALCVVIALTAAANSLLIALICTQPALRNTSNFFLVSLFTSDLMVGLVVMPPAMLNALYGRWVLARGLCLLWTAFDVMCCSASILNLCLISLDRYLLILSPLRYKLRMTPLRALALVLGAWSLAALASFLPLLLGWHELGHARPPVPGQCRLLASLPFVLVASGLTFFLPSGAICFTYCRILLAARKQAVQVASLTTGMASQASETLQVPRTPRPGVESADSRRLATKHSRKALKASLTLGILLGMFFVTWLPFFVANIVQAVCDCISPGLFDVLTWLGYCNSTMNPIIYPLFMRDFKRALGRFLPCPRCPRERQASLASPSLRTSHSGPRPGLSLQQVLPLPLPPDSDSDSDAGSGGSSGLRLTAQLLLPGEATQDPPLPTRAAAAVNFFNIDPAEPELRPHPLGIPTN

[11] = tested on: normal lean and DIO female rats; settings: cited from earlier work

Sequence of cloned human 5-HT6 subtype (P50406 whole entry): as above
Sequence of rat 5-HT6 receptor (P31388 whole entry): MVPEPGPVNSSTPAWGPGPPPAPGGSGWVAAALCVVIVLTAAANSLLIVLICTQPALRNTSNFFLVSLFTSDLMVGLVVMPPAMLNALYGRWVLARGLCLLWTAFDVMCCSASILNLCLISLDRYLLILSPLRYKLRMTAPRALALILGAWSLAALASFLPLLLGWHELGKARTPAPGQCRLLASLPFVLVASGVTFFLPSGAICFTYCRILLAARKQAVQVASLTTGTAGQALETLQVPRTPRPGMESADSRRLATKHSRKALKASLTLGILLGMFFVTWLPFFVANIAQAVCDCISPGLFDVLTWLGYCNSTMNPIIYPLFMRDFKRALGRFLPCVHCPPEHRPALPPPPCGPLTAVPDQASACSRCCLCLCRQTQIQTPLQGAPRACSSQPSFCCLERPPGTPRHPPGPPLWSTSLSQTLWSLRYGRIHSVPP

Q: Which “functionality at rat 5-HT6 receptor” value [1] does the source give for `CN(C)CCc1c[nH]c2ccc(NS(=O)(=O)c3ccc4c(Cl)cccc4c3)cc12` [Compound E-6837] here?
A: The value was “partial agonist”.

Q: And the “functionality at cloned human 5-HT6 subtype” value [2]?
A: The value was “full agonist”.

Q: What about the “cumulative weekly food intake” value [3] of the same compound?
A: Its value is “significantly decreased consumption during the first, second and third weeks of treatment”.

Q: What about the weight-loss versus control [3] of the same compound?
A: Its weight-loss versus control is 15.7%.

Q: And the “body composition of weight-loss” value ([3]; rat, in vivo)?
A: The value was “selective reduction in body fat with no changes in either water or protein content”.

Q: And the “food intake and adiposity” value [4]?
A: Its value is “reduce food intake and adiposity”.

Q: With `CC(C)CC(N(C)C)C1(c2ccc(Cl)cc2)CCC1` (centres unmarked) [sibutramine] as the compound, how does the “cumulative weekly food intake” value [3] read?
A: The value was “significantly reduced food intake only during the first week”.

Q: And the weight-loss versus control [3]?
A: Its weight-loss versus control is 11.0%.

Q: For `CNc1cc(NS(=O)(=O)c2ccc(N)cc2)nc(NC)n1` [Ro 04-6790], which body weight-gain [5] is on record?
A: The body weight-gain was “significantly attenuated body weight-gain”.

Q: With `Cc1[nH]c2ccc(Cl)cc2c1C1=CCNCC1` [Compound A, 5-Chloro-2-methyl-3-(1,2,3,6-tetrahydro-pyridin-4-yl)-1H-indole] as the compound, how does the “glucose excursion in oGTT” value [6] read?
A: The value was “improved glucose excursion in a dose-dependent fashion”.

Q: What about the “insulin release compared to vehicle” value [7] of the same compound?
A: Its value is “increased insulin release”.

Q: What about the “hypoglycemia (plasma glucose levels) compared to control” value [8] of the same compound?
A: Its value is “did not cause hypoglycemia”.

Q: And the “plasma glucose concentration over time in oGTT compared to control” value [9]?
A: Its value is “dose dependent decrease in plasma glucose concentration”.

Q: Which results are given for `COc1cc(Cl)cc(C(C)Nc2cc(N3CCNCC3)ccc2S(C)(=O)=O)c1OC.Cl` (centres unmarked) [PRX-07034]?
A: Ki [10]: 4 nM; food intake and adiposity [4]: reduce food intake and adiposity; food intake ([11]; acute studies, normal lean and DIO female rats): inhibited food intake; aversive effect ([11]; rat, in vivo): no aversive effect
